Experimental data: patent EP4653003A1, “PHARMACEUTICAL COMPOSITION HAVING CERIUM COMPOUND CONTAINING TRIVALENT CERIUM AS ACTIVE INGREDIENT” (Applause Pharma Co., Ltd., priority 2023, dated 2024)

Key:
[1] = system: adenine nephropathy model rats; assay type: in vivo, Slc:Wistar rat (male)
Text: • · Rat: Slc:Wistar rat (male) delivered at 12 weeks of age (Japan SLC, Inc.) • · Powder feed: AIN-93G powder feed (Funabashi Farm Co., Ltd.) • · Feed for laboratory animal: Labo MR Stock (Nosan Corporation) • · Adenine: (Tokyo Chemical Industry Co., Ltd.) • · Cerium oxide dispersion: Cerium oxide dispersion prepared in [Preparation of Cerium Oxide Dispersion]
• (i) Weighed was 250 g of a powder feed, which was then kneaded with a kitchen machine. • (ii) After kneaded with a kitchen machine for 3 minutes, the feed adhered on the wall surface was scraped off, and then kneaded again for 3 minutes. Approximately 100 mL of hot water was then added evenly. • (iii) The feed was once put together by hands, and further kneaded with the kitchen machine until it became homogeneous. • (iv) The thus kneaded feed was shaped into a rod through a sausage machine. • (v) The thus shaped feed was cut into a cylindrical shape approximately 2.5 cm in diameter and 1.5 cm in thickness. • (vi) The thus shaped cylindrical feed was dried at 38°C in an incubator for two days. • (vii) The feed was weighed to estimate a proportion of residual water content, and dried until the proportion drops to 10% or below. • (viii) The prepared feed was put in a zipper bag, and stored in a refrigerator.
A special feed was prepared by modifying step (ii) for the normal group feed, as described below. (ii) (Ade): While keeping the content under kneading, 0.625 g of adenine was added in small portions, the content was kneaded with a kitchen machine for 3 minutes, the feed adhered on the wall surface was scraped off, and the content was kneaded again for 3 minutes. Approximately 100 mL of hot water was then added evenly.
A special feed was prepared by modifying steps (i) and (ii) for (2) Adenine Group Feed, as described below. • (i) (Ade + Dispersion (A)): Weighed was 246.1 g of the powder feed, which was then kneaded with a kitchen machine. • (ii) (Ade + Dispersion (A)): While keeping the content under kneading, 0.625 g of adenine was added in small portions, the content was kneaded with the kitchen machine for 3 minutes, the feed adhered on the wall surface was scraped off, and the content was kneaded again for 3 minutes. Next, while keeping the content under kneading, 32.7 g of cerium oxide dispersion was added in small portions, the content was kneaded with the kitchen machine for 3 minutes, the feed adhered on the wall surface was scraped off, and the content was kneaded again for 3 minutes. Approximately 70 mL of hot water was then added evenly. […]

[2] = system: adenine nephropathy model rats; experiment: Uremic toxin lowering action by cerium chloride: indoxyl sulfate in whole blood by HPLC; assay type: in vivo; conditions: blood collected by dissection; feed of adenine combined with cerium chloride
Experimental: A solvent for precipitation (5.56 µmol/L 2-naphthalenesulfonic acid solution in acetonitrile) and a blood sample (whole blood) were mixed in a 1.5 mL polypropylene tube, the mixture was allowed to stand still at room temperature, and then centrifuged to cause solid-liquid separation, thereby obtaining a supernatant. A 10 mmol/L aqueous ammonium acetate solution was added to the thus obtained supernatant, and the mixture was centrifuged to obtain a supernatant. The operation above diluted the blood sample 50 times, with the final concentration of the thus-added 2-naphthalenesulfonic acid adjusted to 1 µmol/L.
Fig. 19 illustrates a diagram, with the indoxyl sulfate concentration in the blood sample collected by dissection plotted on the ordinate, and with the total mole amount of cerium contained in 100 g of feed plotted on the abscissa.

[3] = blood collected by dissection on Day 28, substance mixed in adenine feed, trend against content in 100 g feed

cerium(III) chloride heptahydrate [cerium chloride]
blood urea nitrogen (BUN) [1, 3]: decline as the cerium chloride content in the feed increased
serum creatinine (CRE) [1, 3]: decline as the cerium chloride content in the feed increased
serum phosphorus (IP) [1, 3]: decline as the cerium chloride content in the feed increased
alanine aminotransferase (ALT) ([1]; rat, in vivo): equivalent to that in the normal group
indoxyl sulfate concentration in whole blood [2]: declining tendency
